# Test results reported in ChEMBL document CHEMBL1201862, “PubChem BioAssay data set” (2004).
# Active and inactive are the calls of the source.
# Legend:
# [1] = molecular target: Voltage-dependent T-type calcium channel subunit alpha-1H (Homo sapiens, UniProt O95180); assay type: functional;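 also: channel activity triggered by adding a high calcium stimulation buffer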
# [2] = microbe, parasite or virus in culture; assay type: functional; conditions: Mycobacterium tuberculosis
# Streptokinase A = molecular target: T1, Streptokinase A (Streptococcus pyogenes serotype M1, UniProt P10520); experiment: viability-normalized secreted streptokinase activity reduction – plasminogen activation absorbance, OD405, dose response (AID 1914); assay type: functional, Streptococcus pyogenes M1 GAS;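 also: secreted streptokinase activity via plasminogen activation per viability signal from cell pellet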
# T1 sequence (P10520 whole entry): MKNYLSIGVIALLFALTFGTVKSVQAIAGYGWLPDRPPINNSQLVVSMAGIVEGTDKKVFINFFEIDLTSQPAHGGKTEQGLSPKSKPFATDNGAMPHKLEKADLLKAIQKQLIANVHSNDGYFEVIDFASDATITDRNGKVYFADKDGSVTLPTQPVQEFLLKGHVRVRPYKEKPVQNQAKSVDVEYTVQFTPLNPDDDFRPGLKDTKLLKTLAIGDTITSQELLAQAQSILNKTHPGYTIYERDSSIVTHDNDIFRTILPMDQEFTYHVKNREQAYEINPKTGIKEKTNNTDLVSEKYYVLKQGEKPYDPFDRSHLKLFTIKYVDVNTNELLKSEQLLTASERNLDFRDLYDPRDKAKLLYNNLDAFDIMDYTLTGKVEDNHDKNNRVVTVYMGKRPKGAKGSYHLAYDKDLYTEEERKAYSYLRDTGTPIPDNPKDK
# Streptococcus = experiment: GAS UMAA2166 growth inhibition – luminescence, BacTiterGlo, counter-screen for streptokinase expression inhibitor project, dose response (AID 1915); assay type: functional, organism-based;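 also: potency for reduction of bacterial viability or growth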
# [3] = tested on: Streptococcus sp. 'group A'; experiment: Streptococcus pyogenes SK(-)GAS viability under kanamycin – luminescence, BacTiterGlo, confirmation, counter-screen for streptokinase expression inhibitor project, dose response (AID 1900); assay type: functional, organism-based
# H4 = experiment: Luminescence Cell-Based Dose Response HTS to Identify Activators of 5'UTR Stem-Loop Driven Prion Protein mRNA Translation in H4 Neuroglioblastoma Cells. [Related pubchem assays: 1829 (Project Summary), 1814 (Primary HTS)]; assay type: functional; conditions: Homo sapiens
# [4] = Luminescence Cell-Based Dose Response to Identify Activators of Luciferase Translation or Activity in H4-C Neuroglioblastoma Cells. [Related pubchem assays: 1829 (Project Summary), 1814 (Primary HTS)]; assay type: functional
# [5] = Luminescence Cell-Based Dose Confirmation HTS to Identify Activators of 5'UTR Stem-Loop Driven Alpha-Synuclein mRNA Translation in H4 Neuroglioblastoma Cells. [Related pubchem assays: 1829 (Project Summary), 1814 (Primary HTS)]; assay type: functional
# [6] = Luminescence Cell-Based Dose Response to Identify Activators of 5'UTR Stem-Loop Driven Prion Protein mRNA Translation in H4-C Neuroglioblastoma Cells. [Related pubchem assays: 1829 (Project Summary), 1814 (Primary HTS)]; assay type: functional
# [7] = Luminescence Cell-Based Dose Confirmation to Identify Activators of 5'UTR Stem-Loop Driven Alpha-Synuclein mRNA Translation in H4 Neuroglioblastoma Cells. [Related pubchem assays: 1829 (Project Summary), 1814 (Primary HTS)]; assay type: functional
# [8] = Luminescence Cell-Based Dose Response HTS to Identify Activators of Luciferase Translation or Activity in H4 […] Cells. [Related pubchem assays: 1829 (Project Summary), 1814 (Primary HTS)]; assay type: functional
# [9] = molecular target: DNA dC->dU-editing enzyme APOBEC-3G (Homo sapiens, UniProt Q9HC16); experiment: Dose Response confirmation of small molecule APOBEC3G DNA Deaminase Inhibitors via a fluorescence-based single-stranded DNA deaminase assay. [Related pubchem assays (depositor defined):AID493012, AID493028]; assay type: functional
# [10] = molecular target: T2, Voltage-gated N-type calcium channel alpha-1B subunit/Amyloid beta A4 precursor protein-binding family A member 1 (Homo sapiens, UniProt Q00975+Q02410); assay type: protein assay
# Large T antigen = Large T antigen (Simian virus 40, UniProt P03070); assay type: functional, Betapolyomavirus macacae;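 also: Confirmatory-stage PubChem screen for compounds that inhibit SV40 T antigen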
# Beta-galactosidase = Beta-galactosidase (Escherichia coli, UniProt Q8VNN2); experiment: detection-enzyme interference by beta-gal modulators – biochemical, E. coli enzyme, set 3, artefact control for CCR6 antagonist project, dose response (AID 504712); assay type: functional
# [11] = molecular target: T2, Voltage-gated N-type calcium channel alpha-1B subunit/Amyloid beta A4 precursor protein-binding family A member 1; assay type: protein assay; remark: listed apart in the source
# [12] = molecular target: Heat shock protein HSP 90-alpha (Homo sapiens, UniProt P07900); assay type: functional, organism-based
# Cytochrome P450 3A4 = Cytochrome P450 3A4 (Homo sapiens, UniProt P08684); conditions: Potency;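 also: confirmatory qHTS run detecting inhibitors and substrates of CYP3A4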
# [13] = molecular target: E3 ubiquitin-protein ligase Mdm2 (Homo sapiens, UniProt Q00987); experiment: MDM2-luc reporter signal enhancers, multi-concentration potency testing, MDM2 ubiquitin-protein ligase inhibitor program, whole-cell format, luminescence detection, 384-well microplate (AID 1394); assay type: functional;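 also: MDM2 E3 inhibitors raise luminescence so EC50 is for signal enhancement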
# [14] = molecular target: T3, Carboxy-terminal domain RNA polymerase II polypeptide A small phosphatase 1 (Homo sapiens, UniProt Q9GZU7); experiment: CTDSP1 inhibitors, concentration-response, biochemical, absorbance readout, ultra-high-throughput screen actives (AID 540297); assay type: functional
# T3 sequence (Q9GZU7 whole entry): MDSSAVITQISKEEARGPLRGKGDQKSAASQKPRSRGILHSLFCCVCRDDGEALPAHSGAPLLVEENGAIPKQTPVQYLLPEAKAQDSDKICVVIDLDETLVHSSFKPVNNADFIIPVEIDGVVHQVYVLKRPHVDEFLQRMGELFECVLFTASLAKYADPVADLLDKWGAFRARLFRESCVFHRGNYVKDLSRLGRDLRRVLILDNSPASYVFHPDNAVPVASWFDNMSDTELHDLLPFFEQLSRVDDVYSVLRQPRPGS
# [15] = molecular target: NAD-dependent protein deacylase sirtuin-5, mitochondrial (Homo sapiens, UniProt Q9NXA8); experiment: sirtuin-5 deacylation blockers, concentration series – biochemical, fluorescence imaging, cherry-pick, set 5, dose response (AID 720591);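 also: desuccinylation of succinyl peptide AMC substrate read as fluorescence after trypsin release; potency of inhibitors that lower fluorescence and may act on trypsin instead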
# [16] = NIH3T3 cell viability loss – ATP luminescence, mouse fibroblasts, counter-screen, dose response (AID 2010); assay type: functional, cell-based;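 also: cells exposed to compound for about 90 hours before reading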
# [17] = Trypanosoma cruzi growth suppression in host cells – NIH3T3 host cells, beta-gal luminescence, confirmation (AID 2044); assay type: functional, cell-based;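 also: intracellular parasites grown in NIH/3T3 mouse fibroblasts as host cells; luminescent beta-galactosidase reporter signal from transgenic T. cruzi replicating inside host cells; inhibitors lower the luminescence signal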
# Protein Wnt-3a = Protein Wnt-3a (Mus musculus, UniProt P27467); experiment: antagonism of Wnt3a pathway luciferase reporter – Wnt-LIGHT cells, luminescence, selectivity assay for Gli-SUFU antagonist project, dose response (AID 651570); assay type: functional; conditions: read-out: IC50_Mean;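 also: Wnt-LIGHT reporter cells stimulated with conditioned medium from Wnt3a-producing cells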
# Paired box protein Pax-8 = Paired box protein Pax-8 (Homo sapiens, UniProt Q06710); experiment: PAX8 transcriptional activity inhibition in RMG-I – RMG-I cells, luciferase, cherry-pick, dose response (AID 687027); assay type: functional, cell-based;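 also: luciferase reporter driven by Pax8 target thyroperoxidase promoter measured by SteadyGlo luminescence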
# [18] = M. tuberculosis H37Rv growth inhibitors, H37Rv strain (AID 1626); assay type: functional
# T2 sequence (Q00975 whole entry): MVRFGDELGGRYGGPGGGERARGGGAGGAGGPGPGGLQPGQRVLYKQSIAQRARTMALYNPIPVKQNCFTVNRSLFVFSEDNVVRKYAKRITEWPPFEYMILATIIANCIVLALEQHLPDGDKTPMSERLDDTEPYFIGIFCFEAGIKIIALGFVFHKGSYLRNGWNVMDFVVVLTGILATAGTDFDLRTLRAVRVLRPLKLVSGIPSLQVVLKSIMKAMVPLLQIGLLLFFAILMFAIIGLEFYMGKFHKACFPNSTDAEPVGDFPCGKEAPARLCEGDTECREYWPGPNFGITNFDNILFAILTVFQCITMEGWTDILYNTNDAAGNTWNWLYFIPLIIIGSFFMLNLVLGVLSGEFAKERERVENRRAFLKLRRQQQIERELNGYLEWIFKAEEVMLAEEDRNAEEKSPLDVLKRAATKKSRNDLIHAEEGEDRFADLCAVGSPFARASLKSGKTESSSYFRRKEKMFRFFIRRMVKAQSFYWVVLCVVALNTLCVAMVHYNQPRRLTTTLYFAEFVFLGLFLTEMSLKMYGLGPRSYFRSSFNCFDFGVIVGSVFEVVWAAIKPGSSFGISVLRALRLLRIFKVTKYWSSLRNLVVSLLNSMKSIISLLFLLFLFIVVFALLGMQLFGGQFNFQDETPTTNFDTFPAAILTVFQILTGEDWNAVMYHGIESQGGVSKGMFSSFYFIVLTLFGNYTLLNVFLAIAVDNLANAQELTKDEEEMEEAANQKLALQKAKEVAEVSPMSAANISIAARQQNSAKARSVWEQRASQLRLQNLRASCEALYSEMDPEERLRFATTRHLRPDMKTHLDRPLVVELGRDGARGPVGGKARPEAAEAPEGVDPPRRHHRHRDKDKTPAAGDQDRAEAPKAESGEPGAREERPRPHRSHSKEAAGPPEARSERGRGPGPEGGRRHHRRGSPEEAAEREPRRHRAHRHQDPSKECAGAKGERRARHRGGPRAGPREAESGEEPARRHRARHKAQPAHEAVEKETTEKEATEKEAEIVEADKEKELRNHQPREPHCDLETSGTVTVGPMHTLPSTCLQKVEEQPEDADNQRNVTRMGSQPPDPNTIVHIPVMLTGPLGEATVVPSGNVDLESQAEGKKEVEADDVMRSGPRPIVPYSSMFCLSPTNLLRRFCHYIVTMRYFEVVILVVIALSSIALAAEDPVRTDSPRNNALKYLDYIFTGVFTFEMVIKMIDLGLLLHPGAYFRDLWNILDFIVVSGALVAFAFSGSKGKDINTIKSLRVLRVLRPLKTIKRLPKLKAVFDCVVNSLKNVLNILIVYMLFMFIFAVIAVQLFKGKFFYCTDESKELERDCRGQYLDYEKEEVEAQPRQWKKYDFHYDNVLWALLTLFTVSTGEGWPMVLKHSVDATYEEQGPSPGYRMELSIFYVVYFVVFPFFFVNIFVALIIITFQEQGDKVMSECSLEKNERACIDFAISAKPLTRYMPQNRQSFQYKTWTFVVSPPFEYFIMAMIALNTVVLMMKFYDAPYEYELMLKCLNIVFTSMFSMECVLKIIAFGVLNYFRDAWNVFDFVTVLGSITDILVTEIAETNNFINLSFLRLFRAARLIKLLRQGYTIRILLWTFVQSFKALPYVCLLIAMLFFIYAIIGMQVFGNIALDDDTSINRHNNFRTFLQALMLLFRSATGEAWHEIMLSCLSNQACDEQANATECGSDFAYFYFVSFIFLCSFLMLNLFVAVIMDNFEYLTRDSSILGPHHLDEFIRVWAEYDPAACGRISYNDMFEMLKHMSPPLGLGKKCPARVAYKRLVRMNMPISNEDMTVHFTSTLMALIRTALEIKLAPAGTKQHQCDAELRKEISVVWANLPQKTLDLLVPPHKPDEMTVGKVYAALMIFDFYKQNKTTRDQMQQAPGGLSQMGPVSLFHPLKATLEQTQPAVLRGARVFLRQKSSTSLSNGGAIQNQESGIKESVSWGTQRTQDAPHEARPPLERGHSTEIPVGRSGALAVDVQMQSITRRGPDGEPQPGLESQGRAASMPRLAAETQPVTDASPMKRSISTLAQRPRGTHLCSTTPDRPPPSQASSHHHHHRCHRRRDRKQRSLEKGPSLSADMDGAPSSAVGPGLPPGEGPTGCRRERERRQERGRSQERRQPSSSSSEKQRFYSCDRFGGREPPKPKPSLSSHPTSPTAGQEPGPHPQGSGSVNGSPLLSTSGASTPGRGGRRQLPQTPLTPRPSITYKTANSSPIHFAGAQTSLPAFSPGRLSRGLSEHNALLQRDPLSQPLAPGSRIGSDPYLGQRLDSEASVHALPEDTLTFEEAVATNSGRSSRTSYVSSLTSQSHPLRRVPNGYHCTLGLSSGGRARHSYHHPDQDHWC
# T2 sequence (Q02410 whole entry): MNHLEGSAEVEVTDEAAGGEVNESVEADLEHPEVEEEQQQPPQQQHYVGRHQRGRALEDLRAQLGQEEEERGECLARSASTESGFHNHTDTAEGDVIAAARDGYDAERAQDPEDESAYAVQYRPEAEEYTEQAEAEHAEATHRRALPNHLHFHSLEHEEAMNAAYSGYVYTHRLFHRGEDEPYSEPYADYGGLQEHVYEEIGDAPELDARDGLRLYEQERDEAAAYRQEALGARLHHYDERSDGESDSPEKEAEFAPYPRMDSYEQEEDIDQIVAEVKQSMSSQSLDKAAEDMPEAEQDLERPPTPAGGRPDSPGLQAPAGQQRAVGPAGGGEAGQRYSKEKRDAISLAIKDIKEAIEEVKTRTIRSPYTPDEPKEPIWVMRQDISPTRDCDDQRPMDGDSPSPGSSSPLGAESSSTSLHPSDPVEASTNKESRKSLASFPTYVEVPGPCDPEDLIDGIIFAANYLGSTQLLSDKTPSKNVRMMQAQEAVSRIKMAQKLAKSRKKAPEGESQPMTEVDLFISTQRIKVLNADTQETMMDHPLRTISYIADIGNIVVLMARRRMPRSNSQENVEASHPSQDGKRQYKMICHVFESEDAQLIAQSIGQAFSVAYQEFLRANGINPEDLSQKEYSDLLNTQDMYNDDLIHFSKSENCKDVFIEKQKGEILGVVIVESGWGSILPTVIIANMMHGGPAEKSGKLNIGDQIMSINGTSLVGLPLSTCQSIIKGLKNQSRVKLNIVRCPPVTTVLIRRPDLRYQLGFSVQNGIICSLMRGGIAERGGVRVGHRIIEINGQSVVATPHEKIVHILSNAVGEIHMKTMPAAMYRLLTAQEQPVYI
# Chain of NAD-dependent protein deacylase sirtuin-5, mitochondrial (Q9NXA8 whole entry): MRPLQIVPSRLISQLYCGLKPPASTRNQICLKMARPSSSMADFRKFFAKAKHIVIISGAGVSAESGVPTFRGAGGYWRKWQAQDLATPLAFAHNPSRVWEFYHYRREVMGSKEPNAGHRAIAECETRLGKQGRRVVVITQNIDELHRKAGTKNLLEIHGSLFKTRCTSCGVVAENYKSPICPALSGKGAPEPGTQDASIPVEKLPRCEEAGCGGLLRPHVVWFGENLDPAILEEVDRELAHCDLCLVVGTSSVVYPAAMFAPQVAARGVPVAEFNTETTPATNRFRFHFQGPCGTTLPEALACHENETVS
# Chain of E3 ubiquitin-protein ligase Mdm2 (Q00987 whole entry, the tested form may be a part): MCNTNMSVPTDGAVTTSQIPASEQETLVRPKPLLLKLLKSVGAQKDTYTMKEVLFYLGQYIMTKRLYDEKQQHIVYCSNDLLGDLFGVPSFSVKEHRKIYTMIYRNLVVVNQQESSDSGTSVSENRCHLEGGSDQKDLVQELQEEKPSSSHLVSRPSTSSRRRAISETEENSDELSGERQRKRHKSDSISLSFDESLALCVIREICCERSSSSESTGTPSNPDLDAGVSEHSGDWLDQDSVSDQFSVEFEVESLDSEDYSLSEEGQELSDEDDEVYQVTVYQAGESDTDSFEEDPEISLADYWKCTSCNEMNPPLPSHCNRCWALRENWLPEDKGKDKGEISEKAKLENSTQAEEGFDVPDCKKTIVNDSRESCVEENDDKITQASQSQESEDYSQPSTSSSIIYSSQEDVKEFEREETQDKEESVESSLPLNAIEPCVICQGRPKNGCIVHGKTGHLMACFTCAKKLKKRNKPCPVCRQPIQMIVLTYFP
# Chain of Cytochrome P450 3A4 (P08684 whole entry): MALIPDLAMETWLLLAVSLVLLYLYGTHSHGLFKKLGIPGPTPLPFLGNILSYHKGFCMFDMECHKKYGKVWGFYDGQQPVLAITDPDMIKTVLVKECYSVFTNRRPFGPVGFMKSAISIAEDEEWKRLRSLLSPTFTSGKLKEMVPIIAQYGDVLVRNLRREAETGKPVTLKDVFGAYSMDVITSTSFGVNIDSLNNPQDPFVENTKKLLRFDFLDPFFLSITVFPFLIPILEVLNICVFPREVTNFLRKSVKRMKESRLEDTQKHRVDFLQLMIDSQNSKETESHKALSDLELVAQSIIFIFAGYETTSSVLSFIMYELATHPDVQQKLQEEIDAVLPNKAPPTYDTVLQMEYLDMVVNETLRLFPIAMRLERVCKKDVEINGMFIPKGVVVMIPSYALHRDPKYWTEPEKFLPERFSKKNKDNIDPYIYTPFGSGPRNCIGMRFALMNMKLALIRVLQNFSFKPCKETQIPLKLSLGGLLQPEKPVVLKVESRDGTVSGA
# Chain of Paired box protein Pax-8 (Q06710 whole entry): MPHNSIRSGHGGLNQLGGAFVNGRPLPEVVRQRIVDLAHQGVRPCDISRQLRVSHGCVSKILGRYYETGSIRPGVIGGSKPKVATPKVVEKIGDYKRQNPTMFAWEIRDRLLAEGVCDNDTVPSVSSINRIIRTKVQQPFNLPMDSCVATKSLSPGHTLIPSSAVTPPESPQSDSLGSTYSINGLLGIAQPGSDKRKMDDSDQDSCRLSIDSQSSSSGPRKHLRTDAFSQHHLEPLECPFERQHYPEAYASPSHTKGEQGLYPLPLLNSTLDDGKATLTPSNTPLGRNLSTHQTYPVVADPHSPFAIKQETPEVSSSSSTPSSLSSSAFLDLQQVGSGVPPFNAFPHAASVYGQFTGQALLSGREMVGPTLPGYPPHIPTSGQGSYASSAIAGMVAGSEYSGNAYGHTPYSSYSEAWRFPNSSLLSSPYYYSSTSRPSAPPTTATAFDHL
structure (smiles),measurement,setting,value
O=C(OCc1ccccc1)c1cccc(-c2nnn(Cc3ccccc3)n2)c1,EC50,[1],9.03 µM (active)
same,CC50,[2],> 40 µM (active)
same,EC50,Streptokinase A,26 µM (inconclusive)
same,EC50,Streptococcus,> 150 µM (not active)
same,EC50,[3],> 150 µM (not active)
CCCOc1ccccc1Cn1c(=O)oc2ccc(C)cc21,EC50,[1],10.6 µM (active)
O=C(c1cc(COc2ccc(F)cc2Cl)on1)N1CCSCC1,EC50,H4,0.1 µM (active)
same,EC50,[4],> 12 µM (not active)
same,EC50,[5],0.787 µM (active)
same,EC50,[6],> 12 µM (not active)
same,EC50,[7],0.63 µM (active)
same,EC50,[8],4 µM (active)
COc1cc(N2C(=O)C=CC2=O)c(OC)cc1Cl,IC50,[9],44 µM (active)
same,IC50,[10],1.97 µM (active)
same,IC50,Large T antigen,54.6 µM (active)
same,IC50,Beta-galactosidase,> 66.6 µM (inactive)
same,IC50,[11],11.6 µM (active)
same,AC50,[12],2.72 µM (active)
COC(=O)CC1C(C)(C)C2(O)OC34CC2C(=O)[C@@]1(C)C3CC[C@]1(C)C4=CC(=O)OC1c1ccoc1 (stereo not given in full),AC50,Cytochrome P450 3A4,3.16 µM (inconclusive)
CC1(C)CC2=Nc3nc(SCCN4CCOCC4)nc(O)c3C(c3cccs3)C2=C(O)C1 (stereo not given),EC50,[13],47.7 µM (not active)
O=C(O)CSc1ncnc2c1sc1nc(-c3ccccc3)c3c(c12)CCC3,IC50,[14],4.04 µM (active)
same,AC50,[15],> 30 µM (inactive)
CCOC(=O)c1c(NC(=O)Cn2cnc([N+](=O)[O-])n2)sc2c1CCC(C)C2 (stereo not given),EC50,[16],> 60 µM (not active)
same,EC50,cells,0.221 µM (active)
same,EC50,[17],< 0.1 µM (active)
CN(C)c1nc(-c2ccccc2)[n+](C)s1,IC50,[10],> 50 µM (inactive)
same,IC50,[11],3.76 µM (active)
C(=C\c1ccccc1)/CN1CCN(Cc2ccc3c(c2)OCCO3)CC1,EC50,[16],> 60 µM (not active)
same,EC50,cells,0.053 µM (active)
same,EC50,[17],< 0.1 µM (active)
CCOC(=O)N1CCN(C(=O)c2cc(COc3ccc4ncccc4c3)on2)CC1,AC50,[15],> 30 µM (inactive)
same,IC50,Protein Wnt-3a,0.555 µM (active)
C=C1C2(C(=O)Nc3ccc(SC(F)F)cc3)CCC(C2)C1(C)C (stereo not given),AC50,Paired box protein Pax-8,62.8 µM (active)
same,IC50,[18],> 100 µM (active)
Cc1cc(C)nc(S/C=C/C(=O)c2ccc(F)cc2)n1,EC50,[13],0.81 µM (active)
